Reference: US20240122923A1, “METHODS OF TREATING HIDRADENITIS SUPPURATIVA” (AbbVie Inc., priority 2022, published 2024)

Test system: adult human subjects with moderate to severe Hidradenitis Suppurativa (HS)
Experiment: Phase 2 randomized, double-blind, placebo-controlled study of upadacitinib, efficacy incl. post-hoc analysis through week 40
Format: in vivo
Conditions: for Pain NRS30 at Week 12, UPA - PBO Diff: UPA 30 mg vs historical PBO rate 22.5%, p=0.028; for HiSCR at Week 12, UPA - PBO Diff: UPA 30 mg vs historical PBO rate 25%, 1-sided p=0.018; for HiSCR at Week 12, % (N), stratum TNF-IR / HiSCR at Week 12, % (N), stratum Hurley Stage (III) / HiSCR at Week 12, % (N), stratum Hurley Stage (<III) / HiSCR at Week 12, % (N), stratum TNF-Naïve / HiSCR at Week 12, % (N), Overall: UPA 30 mg; for HiSCR at Week 12, % (N), stratum TNF-IR: N=12; for HiSCR at Week 12, % (N), stratum Hurley Stage (III): N=23; for HiSCR at Week 12, % (N), stratum Hurley Stage (<III): N=24; for HiSCR at Week 12, % (N), stratum TNF-Naïve: N=35; for HiSCR at Week 12, % (N), Overall: N=47
Source text: This study was a Phase 2, multicenter, randomized, double-blind, parallel-group, placebo-controlled study to evaluate the efficacy and safety of upadacitinib in adult human subjects with moderate to severe Hidradenitis Suppurativa (HS).
The duration of the study was 57 weeks, including an approximately 35-day screening period followed by a 48-week double-blinded treatment period and a 30-day follow-up visit after the last dose of study drug. Subjects were randomized in a 2:1 ratio to 1 of the 2 arms as shown below: • Upadacitinib 30 mg once daily (QD) (N=40): Daily oral doses of upadacitinib 30 mg from the Baseline visit through Period 1 and Period 2. • Placebo (N=20): Placebo for upadacitinib from the Baseline visit up to the Week 12 visit (Period 1). At Week 12, subjects were switched to blinded upadacitinib 15 mg QD through Period 2.
The primary objective of this study was to assess the efficacy and safety of upadacitinib 30 mg QD in adult subjects with moderate to severe HS. The primary efficacy objective was assessed based on the achievement of HiSCR after 12 weeks treatment.
The primary endpoint was Hidradenitis Suppurativa Clinical Response (HiSCR) at Week 12, where HiSCR is defined as at least 50% reduction in the total abscess and inflammatory nodule (AN) count with no increase in abscess count and no increase in draining fistula count relative to Baseline.
The secondary endpoint was Pain Numerical Rating Scale (NRS30) at Week 12: the achievement of at least 30% reduction and at least 1 unit reduction from Baseline in NRS30 in Patient's Global Assessment of Skin Pain (PGA Skin Pain) at Week 12, among subjects with Baseline NRS≥3.
The following additional efficacy endpoints were evaluated: • 1. Experience of flare, defined as an increase in AN count of at least 25% with a minimum increase of 2 relative to Baseline • 2. Change from Baseline in Dermatology Life Quality Index (DLQI) • 3. Change from baseline in Hidradenitis Suppurativa Symptom Assessment (HSSA) • 4. Change from baseline in HS-related swelling, assessed based on the HSSA • 5. Change from baseline in HS-related odor, assessed based on the HSSA • 6. Change from baseline in HS-related worst drainage, assessed based on the HSSA
For the primary and secondary endpoints, comparisons of upadacitinib vs. placebo were made with 3 different analysis strategies, as summarized in Table 1 below:
For the additional endpoints, comparisons were made for upadacitinib vs. historical reference value of placebo, and upadacitinib vs. in-trial placebo subjects.
For categorical variables, the primary approach to handle missing data was Non-Responder Imputation [NRI] incorporating Multiple Imputation [MI]. For continuous variables, missing data was handled by Mixed-effect Model Repeat Measurement (MMRM). Missing data for long-term efficacy in Period 2 were handled based on the observed case (OC).
A post-hoc efficacy assessment through week 40 was performed in the study of Example 1. The analysis included the proportion of patients achieving ≥75% and ≥90% reduction from baseline in AN count with no increase in abscess or draining fistula count (HiSCR 75 and HiSCR 90, respectively) and the proportion of patients achieving ≥55% reduction in International HS Severity Score System endpoint (IHS4-55), which dynamically assesses inflammatory nodules, abscesses, and draining tunnels.

[1] = UPA 30 mg vs in-trial PBO, p=0.086
[2] = MI, analysis vs synthetic + in-trial PBO

CC[C@@H]1CN(C(=O)NCC(F)(F)F)C[C@@H]1c1cnc2cnc3[nH]ccc3n12 [upadacitinib]
Pain NRS30 at Week 12, UPA - PBO Diff: 13.9% | Pain NRS30 at Week 12, UPA - PBO Diff (listed as UPA): Diff = 13.9% | HiSCR at Week 12, UPA - PBO Diff (NRI-C): 13.3% | HiSCR at Week 12, UPA - PBO Diff (NRI-C, listed as UPA): Diff = 13.3% | Flare during Period 1, UPA - PBO Diff (UPA 30 mg vs historical PBO rate 34%, p=0.001): Diff = −21.2 | Change in HSSA odor at Week 12, UPA - PBO Diff (UPA 30 mg vs historical reference value −0.72, p=0.072): Diff = −0.479 | Change in HSSA total symptom at Week 12, UPA - PBO Diff (UPA 30 mg vs historical reference value −0.72, p=0.188): Diff = −0.249 | Change in HSSA swelling at Week 12, UPA - PBO Diff (UPA 30 mg vs historical reference value −0.8, p=0.364): Diff = −0.131 | Change in HSSA worst drainage at Week 12, UPA - PBO Diff (UPA 30 mg vs historical reference value −0.89, p=0.219): Diff = −0.241 | Change in DLQI at Week 12, UPA - PBO Diff (UPA 30 mg vs historical reference value −2.5, p=0.548): Diff = 0.1 | Pain NRS30 at Week 12, UPA - PBO Diff (adjusted difference) (UPA 30 mg vs in-trial PBO (N=12), p=0.421): 2.2% | Pain NRS30 at Week 12, UPA - PBO Diff (adjusted difference) (UPA 30 mg vs in-trial PBO (N=12), p=0.421, listed as UPA): Diff = 2.2% | HiSCR at Week 12, UPA - PBO Diff (adjusted difference) (UPA 30 mg vs in-trial PBO (N=21), NRI-C, p=0.087): 14.7% | HiSCR at Week 12, UPA - PBO Diff (adjusted difference) (UPA 30 mg vs in-trial PBO (N=21), NRI-C, p=0.087, listed as UPA): Diff = 14.7% | Change in HSSA odor at Week 12, UPA - PBO Diff (UPA 30 mg vs in-trial PBO, p=0.024): Diff = −1.246 | Change in HSSA total symptom at Week 12, UPA - PBO Diff (UPA 30 mg vs in-trial PBO, p=0.046): Diff = −0.762 | Change in HSSA swelling at Week 12, UPA - PBO Diff [1]: Diff = −0.795 | Change in HSSA worst drainage at Week 12, UPA - PBO Diff [1]: Diff = −0.695 | Change in DLQI at Week 12, UPA - PBO Diff (UPA 30 mg vs in-trial PBO, p=0.222): Diff = −1.4 | Flare during Period 1, UPA - PBO Diff (UPA 30 mg vs in-trial PBO, p=0.231): Diff = −6.5 | Pain NRS30 at Week 12, UPA - PBO Diff (adjusted difference) (UPA 30 mg vs synthetic plus in-trial PBO (N=80), p=0.323): 4.5% (−14.6, 23.5) | Pain NRS30 at Week 12, UPA - PBO Diff (adjusted difference) (UPA 30 mg vs synthetic plus in-trial PBO (N=80), p=0.323, listed as UPA): Diff = 4.5% | HiSCR at Week 12, UPA - PBO Diff (adjusted difference) (UPA 30 mg vs synthetic plus in-trial PBO (N=89), NRI-C, p=0.142): 9.2% (−7.6, 25.9) | HiSCR at Week 12, UPA - PBO Diff (adjusted difference) (UPA 30 mg vs synthetic plus in-trial PBO (N=89), NRI-C, p=0.142, listed as UPA): Diff = 9.2% | HiSCR at Week 12, % (N), stratum TNF-IR (MI, analysis vs in-trial PBO): 41.7% (N = 12) | HiSCR at Week 12, % (N), stratum Hurley Stage (III) (MI, analysis vs in-trial PBO): 39.7% (N = 23) | HiSCR at Week 12, % (N), stratum Hurley Stage (<III) (MI, analysis vs in-trial PBO): 38.1% (N = 24) | HiSCR at Week 12, % (N), stratum TNF-Naïve (MI, analysis vs in-trial PBO): 37.9% (N = 35) | HiSCR at Week 12, % (N), Overall (MI, analysis vs in-trial PBO): 38.9% (N = 47) | HiSCR at Week 12, % (N), stratum TNF-IR [2]: 41.7% (N = 12) | HiSCR at Week 12, % (N), stratum Hurley Stage (III) [2]: 40.3% (N = 23) | HiSCR at Week 12, % (N), stratum Hurley Stage (<III) [2]: 39.0% (N = 24) | HiSCR at Week 12, % (N), stratum TNF-Naïve [2]: 39.0% (N = 35) | HiSCR at Week 12, % (N), Overall [2]: 39.6% (N = 47) | HiSCR at Week 12, % (N), stratum TNF-IR (NRI-C): 41.7% | HiSCR at Week 12, % (N), stratum TNF-IR (NRI-C, listed as UPA): 41.7% (N = 12) | HiSCR at Week 12, % (N), stratum Hurley Stage (III) (NRI-C): 39.1% (N = 23) | HiSCR at Week 12, % (N), stratum Hurley Stage (<III) (NRI-C): 37.5% (N = 24) | HiSCR at Week 12, % (N), stratum TNF-Naïve (NRI-C): 37.1%
